Read-outs that look alike come from different tables or passages of the source.
Tests used:
in vitro [1] = assay: in vitro; parameters: species or system HB2, CCD841; details: human, hek293 cells
OTUB2 (OTUB2A) = molecular target: T1, OTUB2 (OTUB2A) (Homo sapiens, UniProt Q96DC9); parameters: Intact protein LC/MS covalent labelling, fragments in pools of five, 200 uM each, 4 °C; details: 24 h, 4 °C, pool of five; 200 µM; covalent
T1 construct: full length residues 1-234, E. coli BL21(DE3)-R3, His tag removed by TEV, construct 27312 Da
T1 sequence (Q96DC9 1-234): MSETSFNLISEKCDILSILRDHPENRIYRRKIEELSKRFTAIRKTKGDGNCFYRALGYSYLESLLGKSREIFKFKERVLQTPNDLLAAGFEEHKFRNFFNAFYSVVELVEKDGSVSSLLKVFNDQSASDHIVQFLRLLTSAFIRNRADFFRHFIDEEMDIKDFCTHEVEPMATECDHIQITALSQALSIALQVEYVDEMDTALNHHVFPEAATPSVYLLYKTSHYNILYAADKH
Experimental: (§1) Incubations were performed at 200 μM for each compound and 2 μM of protein (10 μM for BSA) for 24 h at 4 °C with moderate shaking. Incubation buffers varied among proteins (PBS pH 7.4 for QSOX1 and BSA; 10 mM HEPES pH 7.5, 0.3 M NaCl, 0.5 mM TCEP for PCAF, UPS8, and NUDT7; […]; 10 mM Na2HPO4 pH 7.5 100 mM NaCl 5 mM β-mercaptoethanol for NV3CP; 20 mM Na phosphate pH 7.5 for NNMT; […]. The reaction was stopped by quenching with formic acid, 0.4% final concentration. Each protein was incubated with the electrophilic library in pools of five compounds per well. The pool’s composition maximized the difference in mass between fragments in the same well. Incubations were performed with each fragment at 200 μM, for 24 h at 4 °C, to allow the screening of proteins that are not stable for long time periods at higher temperatures. Following incubation, we used intact protein [compound left out] chromatography/mass spectrometry (LC/MS) to identify the fragments and quantify their labeling (Figure 3A). […] There was good agreement between the percent of labeling of NUDT7 by 100 random individual compounds and that obtained in pools of five (R^2=0.78; Figure S6 and Data set 2 in the Supporting Information).

BSA = molecular target: T2, BSA (Bos taurus, UniProt P02769); parameters: Intact protein LC/MS covalent labelling, fragments in pools of five, 200 uM each, 4 °C; details: 24 h, 4 °C, pool of five; 200 µM; covalent
T2 construct: gene ALB
T2 sequence (P02769 whole entry, the tested form may be a part): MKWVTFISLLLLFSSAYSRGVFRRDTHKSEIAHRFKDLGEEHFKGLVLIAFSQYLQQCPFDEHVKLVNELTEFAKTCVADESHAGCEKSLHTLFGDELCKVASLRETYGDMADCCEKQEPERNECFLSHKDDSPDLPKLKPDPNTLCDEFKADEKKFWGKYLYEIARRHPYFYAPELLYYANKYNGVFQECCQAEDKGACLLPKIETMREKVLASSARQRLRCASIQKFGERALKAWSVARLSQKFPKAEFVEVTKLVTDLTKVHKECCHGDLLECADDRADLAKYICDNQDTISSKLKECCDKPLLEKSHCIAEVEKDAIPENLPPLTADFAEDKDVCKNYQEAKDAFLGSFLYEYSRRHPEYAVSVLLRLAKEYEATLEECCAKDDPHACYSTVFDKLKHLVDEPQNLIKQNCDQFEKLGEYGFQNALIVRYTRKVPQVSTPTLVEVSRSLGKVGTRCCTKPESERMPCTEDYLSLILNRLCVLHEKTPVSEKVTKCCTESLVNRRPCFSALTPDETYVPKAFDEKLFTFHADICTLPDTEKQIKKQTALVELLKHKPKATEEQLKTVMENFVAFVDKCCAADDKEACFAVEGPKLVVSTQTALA
Experimental: as §1

NUDT7 = molecular target: T3, NUDT7 (Homo sapiens, UniProt P0C024); parameters: Intact protein LC/MS covalent labelling, fragments in pools of five, 200 uM each, 4 °C; details: 24 h, 4 °C, pool of five; 200 µM; covalent
T3 construct: residues 14-235, E. coli, pNIC28-Bsa4, N-terminal His6 tag removed by TEV, construct 26672 Da
T3 sequence (P0C024 14-235): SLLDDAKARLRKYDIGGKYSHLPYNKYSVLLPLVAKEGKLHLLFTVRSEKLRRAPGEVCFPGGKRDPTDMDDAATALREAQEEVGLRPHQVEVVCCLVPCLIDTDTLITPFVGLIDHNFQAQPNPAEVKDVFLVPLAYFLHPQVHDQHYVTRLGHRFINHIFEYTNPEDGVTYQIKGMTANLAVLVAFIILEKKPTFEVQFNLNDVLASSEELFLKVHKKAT
Experimental: as §1

PCAF = molecular target: T4, PCAF (Homo sapiens, UniProt Q92831); parameters: Intact protein LC/MS covalent labelling, fragments in pools of five, 200 uM each, 4 °C; details: 24 h, 4 °C, pool of five; 200 µM; covalent
T4 construct: gene KAT2B
T4 sequence (Q92831 whole entry, the tested form may be a part): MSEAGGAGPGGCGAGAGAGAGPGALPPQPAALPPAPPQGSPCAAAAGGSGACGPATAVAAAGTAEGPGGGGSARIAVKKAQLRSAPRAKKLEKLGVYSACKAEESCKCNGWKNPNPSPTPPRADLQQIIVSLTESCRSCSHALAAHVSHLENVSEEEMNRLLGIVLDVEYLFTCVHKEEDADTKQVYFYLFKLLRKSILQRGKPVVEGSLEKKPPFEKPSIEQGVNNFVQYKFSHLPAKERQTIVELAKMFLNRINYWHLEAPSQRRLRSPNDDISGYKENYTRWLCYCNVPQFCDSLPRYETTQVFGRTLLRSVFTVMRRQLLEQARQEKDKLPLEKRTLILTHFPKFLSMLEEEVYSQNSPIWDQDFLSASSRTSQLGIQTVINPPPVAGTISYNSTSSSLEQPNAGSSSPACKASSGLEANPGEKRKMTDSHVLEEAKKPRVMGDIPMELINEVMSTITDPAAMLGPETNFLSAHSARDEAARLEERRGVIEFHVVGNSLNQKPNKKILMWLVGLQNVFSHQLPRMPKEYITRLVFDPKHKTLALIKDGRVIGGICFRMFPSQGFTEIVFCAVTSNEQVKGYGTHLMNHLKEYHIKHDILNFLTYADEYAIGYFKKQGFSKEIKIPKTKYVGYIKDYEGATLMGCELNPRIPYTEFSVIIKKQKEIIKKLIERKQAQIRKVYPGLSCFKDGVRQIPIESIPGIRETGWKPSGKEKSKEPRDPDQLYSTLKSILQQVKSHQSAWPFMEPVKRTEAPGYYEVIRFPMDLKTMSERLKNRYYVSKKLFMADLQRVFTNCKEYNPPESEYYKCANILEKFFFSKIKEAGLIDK
Experimental: as §1

in vitro [2] = assay: in vitro; parameters: species or system HB2, HEK293; details: human, ccd841 cells
in vitro [3] = assay: in vitro; parameters: species or system CCD841, HEK293; details: human, hb2 cells, read-out: HB-2 Cells Viability (%)

SMILES | OTUB2 (OTUB2 (OTUB2A)) | BSA (BSA) | NUDT7 (NUDT7) | PCAF (PCAF) | viability at 48 h, 10 µM (in vitro [1]) | viability at 48 h, 10 µM (in vitro [2]) | viability at 48 h, 10 µM (in vitro [3])
NC(=O)C1CN(C(=O)CCl)c2ccccc2O1 (centres unmarked) [PCM-0102245] | 0.15 | 0 | 0.12 | 0 | 31.8% | 60.8% | 58.4%
Cc1cc(C)c2nc(NC(=O)CCl)sc2c1 [PCM-0102246] | 0.14 | 0 | 0.83 | 0 | 67.3% | 79.8% | 51.6%
COc1ccc(N2CCN(C(=O)CCl)CC2)cc1 [PCM-0102254] | 0 | 0 | 0 | 0 | 42.2% | 84.2% | 33.8%
O=C(CCl)N1CCN(C(=O)Nc2ccccc2)CC1 [PCM-0102257] | 0 | 0 | 0.07 | 0 | 8.5% | 56.6% | 34.8%
O=C(CCl)Nc1cc(Cl)ccc1-n1cncn1 [PCM-0102258] | 0 | 0 | 0.21 | 0 | 11.7% | 51.7% | 53.8%
CN(CC(=O)NC(C)(C)C)C(=O)CCl [PCM-0102259] | 0 | 0 | 0 | 0 | 69% | 85.2% | 97.2%
CC(C)(C)C1CCc2sc(C(=O)NNC(=O)CCl)cc2C1 (centres unmarked) [PCM-0102260] | 0.67 | 0 | 0 | 0 | 10.2% | 29.7% | 64%
Cc1c(C#N)c(NC(=O)CCl)n(-c2ccccc2)c1C [PCM-0102261] | 0.09 | 0 | 0.3 | 0 | 7.8% | 75.1% | 42.5%
CC(C)C(C#N)N1CCN(C(=O)CCl)CC1 (centres unmarked) [PCM-0102263] | 0.31 | 0 | 0.17 | 0 | 13.9% | 65.2% | 64%
Cc1csc(N(C(=O)CCl)c2ccccc2)n1 [PCM-0102265] | 0.06 | 0 | 0.19 | 0 | 48.6% | 36.8% | 12.6%
O=C(CCl)N1c2ccccc2OCC1c1ccccc1 (centres unmarked) [PCM-0102266] | 0 | 0 | 0.11 | 0 | 52.1% | 57.5% | 56.8%
CC(=O)c1ccc(N2CCN(C(=O)CCl)CC2)c(F)c1 [PCM-0102273] | 0 | 0 | 0.2 | 0 | 2.2% | 38.5% | 4.9%
O=C(CCl)Nc1ccc(OC(F)(F)F)cc1 [PCM-0102276] | 0.36 | 0 | 0.24 | 0 | 9.2% | 64.9% | 13.3%
O=C(CCl)Nc1ccc(I)cc1 [PCM-0102278] | 0.24 | 0.09 | 0.09 | 0 | 4.9% | 57.1% | 18.7%
CN(C)S(=O)(=O)c1ccc2c(c1)CCCN2C(=O)CCl [PCM-0102285] | 0 | 0 | 0 | 0 | 2.2% | 53.5% | 21.6%

Now from value to molecule, other results behind:

OTUB2 (OTUB2 (OTUB2A)) | BSA (BSA) | NUDT7 (NUDT7) | PCAF (PCAF) | SMILES | viability at 48 h, 10 µM (in vitro [1]) | viability at 48 h, 10 µM (in vitro [2]) | viability at 48 h, 10 µM (in vitro [3])
0 | 0 | 0.08 | 0 | Cl.O=C(CCl)N1CCN(Cc2cccs2)CC1 [PCM-0102243] | 43.5% | 77.1% | 45.7%
0.29 | 0.15 | 0.53 | 0 | O=C(CCl)Nc1nc(-c2ccc(F)c(F)c2)cs1 [PCM-0102244] | 0.9% | 76.5% | 6.9%
0 | 0 | 0 | 0 | O=C(CCl)Nc1cc(F)ccc1C(=O)O [PCM-0102247] | 97% | 95.7% | 106%
0.43 | 0 | 0 | 0 | Cc1ccc(C)c(-n2nc(C)cc2NC(=O)CCl)c1 [PCM-0102249] | 25.4% | 64% | 45.3%
0 | 0 | 0.05 | 0 | CC1CCC(C#N)(N(C)C(=O)CCl)CC1 (centres unmarked) [PCM-0102251] | 3.9% | 55.4% | 16.5%
0.29 | 0 | 0.19 | 0 | CC(NC(=O)CCl)c1ccccc1Br (centres unmarked) [PCM-0102256] | 27.3% | 67.3% | 39%
0.63 | 0 | 0 | 0 | Cc1nc(-c2cccc(NC(=O)CCl)c2)cs1 [PCM-0102262] | 1.7% | 29.7% | 5.4%
0.13 | 0 | 0 | 0 | Cc1sc2nc(-c3cccc(NC(=O)CCl)c3)[nH]c(=O)c2c1C [PCM-0102264] | 61.2% | 92.8% | 64.6%
0.51 | 0 | 0 | 0 | Cc1ccc(C(C)NC(=O)CCl)cc1C (centres unmarked) [PCM-0102270] | 67.9% | 78.1% | 80.2%
0.73 | 0 | 0.32 | 0 | CC(NC(=O)CCl)c1cccc2ccccc12 (centres unmarked) [PCM-0102275] | 47.3% | 70.5% | 61.6%
0.1 | 0.09 | 0 | 0 | CNC(=O)CNC(=O)CCl [PCM-0102279] | 112% | 97.3% | 108%
0.22 | 0 | 0 | 0 | O=C(CCl)NCc1cccs1 [PCM-0102280] | 82% | 81.3% | 94.3%
0 | 0 | 0 | 0 | CC(=O)c1cccc(N2Cc3ccccc3C2=NC(=O)CCl)c1 [PCM-0102283] | 75% | 99.5% | 99.6%
0.28 | 0 | 0 | 0 | O=C(CCl)Nc1cc(F)ccc1F [PCM-0102284] | 17.7% | 58.8% | 38.2%
